From PubChem BioAssay AID330 (DTP/NCI, 2004)
Values joined by “and” are separate entries in the source; they are usually repeats but may differ in a detail not shown here. Identical values can stand only once. Inconclusive results and toxic doses are left out. How the source made its calls: active means survival T/C of 150% or more; inactive means T/C below 125% in these data.

System: P388 leukemia ip, CD2F1 mice, survival T/C
Experiment: NCI In Vivo Anticancer Drug Screen. Data for tumor model P388 Leukemia (intraperitoneal) in CD2F1 (CDF1) mice
Details: endpoint: median survival time, higher = longer survival
Method in brief: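 Mice carrying the transplanted tumor received test compound or vehicle. Survival was recorded in each group, and the value is the treated-group measurement divided by that of the vehicle-treated control group.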

[1] = dose: 100.0 mg/kg/injection, schedule: Q01DX001 (ip), vehicle: Klucel (hydroxypropylcellulose) (HPC)
[2] = dose: 200.0 mg/kg/injection, schedule: Q01DX001 (ip), vehicle: Klucel (hydroxypropylcellulose) (HPC)
[3] = dose: 400.0 mg/kg/injection, schedule: Q01DX001 (ip), vehicle: Klucel (hydroxypropylcellulose) (HPC)
[4] = dose: 25.0 mg/kg/injection, schedule: Q01DX009 (ip), vehicle: saline with Tween-80
[5] = dose: 50.0 mg/kg/injection, schedule: Q01DX009 (ip), vehicle: saline with Tween-80
[6] = dose: 100.0 mg/kg/injection, schedule: Q01DX009 (ip), vehicle: saline with Tween-80
[7] = dose: 6.25 mg/kg/injection, schedule: Q01DX005 (ip), vehicle: Klucel (hydroxypropylcellulose) (HPC)
[8] = dose: 12.5 mg/kg/injection, schedule: Q01DX005 (ip), vehicle: Klucel (hydroxypropylcellulose) (HPC)
[9] = dose: 25.0 mg/kg/injection, schedule: Q01DX005 (ip), vehicle: Klucel (hydroxypropylcellulose) (HPC)
[10] = dose: 50.0 mg/kg/injection, schedule: Q01DX005 (ip), vehicle: Klucel (hydroxypropylcellulose) (HPC)
[11] = dose: 100.0 mg/kg/injection, schedule: Q01DX005 (ip), vehicle: Klucel (hydroxypropylcellulose) (HPC)
[12] = dose: 200.0 mg/kg/injection, schedule: Q01DX009 (ip), vehicle: saline with Tween-80
[13] = dose: 50.0 mg/kg/injection, schedule: Q01DX009 (ip), vehicle: saline
[14] = dose: 200.0 mg/kg/injection, schedule: Q01DX009 (ip), vehicle: saline
[15] = dose: 50.0 mg/kg/injection, schedule: Q01DX009 (ip), vehicle: suspension in saline
[16] = dose: 200.0 mg/kg/injection, schedule: Q01DX005 (ip), vehicle: Klucel (hydroxypropylcellulose) (HPC)
[17] = dose: 50.0 mg/kg/injection, schedule: Q01DX009 (ip), vehicle: Klucel (hydroxypropylcellulose) (HPC)
[18] = dose: 50.0 mg/kg/injection, schedule: Q01DX005 (ip), vehicle: saline with Tween-80
[19] = dose: 100.0 mg/kg/injection, schedule: Q01DX005 (ip), vehicle: saline with Tween-80

Measured: T/C

C#CCN(Cc1ccc2nc(N)[nH]c(=O)c2c1)c1ccc(C(=O)NC(CCC(=O)O)C(=O)O)cc1 (stereo unspecified)
inactive: dose: 12.5 mg/kg/injection, schedule: Q01DX005 (ip), vehicle: water 103 % of control and 104 % of control and 97 % of control | dose: 25.0 mg/kg/injection, schedule: Q01DX005 (ip), vehicle: water 103 % of control and 104 % of control (2×) | dose: 50.0 mg/kg/injection, schedule: Q01DX005 (ip), vehicle: water 109 % of control and 120 % of control (2×) | dose: 100.0 mg/kg/injection, schedule: Q01DX005 (ip), vehicle: water 117 % of control | dose: 150.0 mg/kg/injection, schedule: Q01DX005 (ip), vehicle: alkali diluted with water 97 % of control | dose: 200.0 mg/kg/injection, schedule: Q01DX005 (ip), vehicle: water 97 % of control

Cn1c(=O)c2c(ncn2C2C(=O)NNC2=O)n(C)c1=O
inactive: [1] 100 % of control | [2] 93 % of control | [3] 94 % of control

Clc1ccc(-n2nnc3cc(Cl)ccc32)c(Cl)c1
inactive: dose: 6.25 mg/kg/injection, schedule: Q01DX005 (ip), vehicle: saline with Tween-80 86 % of control and 96 % of control | dose: 12.5 mg/kg/injection, schedule: Q01DX005 (ip), vehicle: saline with Tween-80 94 % of control | dose: 25.0 mg/kg/injection, schedule: Q01DX005 (ip), vehicle: saline with Tween-80 90 % of control and 91 % of control | [4] 103 % of control | [5] 97 % of control | [6] 101 % of control

CN=C(NC)c1ccc(NC(=O)c2cc(OC)cc(C(=O)Nc3ccc(C(=NC)NC)cc3)c2)cc1
inactive: [7] 100 % of control | [8] 110 % of control | [9] 110 % of control

O=c1[nH]nc(SCc2ccccc2Cl)c(=O)[nH]1
inactive: [9] 89 % of control | [10] 89 % of control | [11] 86 % of control

COc1cc(OC)c(OC)cc1/C=C1/N=C(c2ccccc2)OC1=O
inactive: [5] 99 % of control | [6] 92 % of control | [12] 93 % of control

CC1=CN2CCC(=O)N=C2C=C1
inactive: [13] 93 % of control | dose: 100.0 mg/kg/injection, schedule: Q01DX009 (ip), vehicle: saline 90 % of control | [14] 94 % of control

Nc1ccc2[se]ccc2c1
inactive: dose: 12.5 mg/kg/injection, schedule: Q01DX009 (ip), vehicle: suspension in saline 105 % of control | dose: 25.0 mg/kg/injection, schedule: Q01DX009 (ip), vehicle: suspension in saline 100 % of control | [13] 91 % of control | [15] 100 % of control | [14] 100 % of control

Cc1cccc2c(=O)[nH]c(=O)[nH]c12
inactive: [10] 93 % of control | [11] 89 % of control | [16] 89 % of control

Cc1ccc2nc(NC(=S)NCCNC(=S)Nc3ccc4cc(C)ccc4n3)ccc2c1
inactive: [17] 94 % of control | dose: 100.0 mg/kg/injection, schedule: Q01DX009 (ip), vehicle: Klucel (hydroxypropylcellulose) (HPC) 92 % of control | dose: 200.0 mg/kg/injection, schedule: Q01DX009 (ip), vehicle: Klucel (hydroxypropylcellulose) (HPC) 90 % of control

C=CN=NNc1ccc(Cl)cc1
inactive: dose: 100.0 mg/kg/injection, schedule: Q04DX003 (ip), vehicle: saline + Tween-80 + alcohol 109 % of control | dose: 200.0 mg/kg/injection, schedule: Q04DX003 (ip), vehicle: saline + Tween-80 + alcohol 108 % of control | dose: 400.0 mg/kg/injection, schedule: Q04DX003 (ip), vehicle: saline + Tween-80 + alcohol 117 % of control

CCC1=C(C(C)OCCO)C(=O)c2ccccc2C1=O (stereo unspecified)
inactive: [18] 96 % of control | [19] 100 % of control | dose: 200.0 mg/kg/injection, schedule: Q01DX005 (ip), vehicle: saline with Tween-80 94 % of control

N#CN=[N+]([O-])c1ccc([N+](=O)[O-])cc1
inactive: dose: 1.56 mg/kg/injection, schedule: Q01DX001 (ip), vehicle: Klucel (hydroxypropylcellulose) (HPC) 101 % of control | dose: 3.12 mg/kg/injection, schedule: Q01DX001 (ip), vehicle: Klucel (hydroxypropylcellulose) (HPC) 99 % of control | dose: 6.25 mg/kg/injection, schedule: Q01DX001 (ip), vehicle: Klucel (hydroxypropylcellulose) (HPC) 110 % of control | dose: 6.25 mg/kg/injection, schedule: Q04DX003 (ip), vehicle: Klucel (hydroxypropylcellulose) (HPC) 101 % of control

CC1CC=CCC1C1NC(C(=O)O)CS1 (stereo unspecified)
inactive: [15] 106 % of control | dose: 100.0 mg/kg/injection, schedule: Q01DX009 (ip), vehicle: suspension in saline 107 % of control and 88 % of control | dose: 200.0 mg/kg/injection, schedule: Q01DX009 (ip), vehicle: suspension in saline 98 % of control and 96 % of control

OCC(O)CNc1ncnc2cc(Cl)ccc12 (stereo unspecified)
inactive: [9] 100 % of control | [10] 96 % of control | [11] 102 % of control | [16] 105 % of control

Cc1cc(OC(=O)Nc2ccc(C(C)C)cc2)c(C)cc1Br
inactive: dose: 6.25 mg/kg/injection, schedule: Q01DX009 (ip), vehicle: saline 89 % of control | dose: 12.5 mg/kg/injection, schedule: Q01DX009 (ip), vehicle: saline 92 % of control | dose: 25.0 mg/kg/injection, schedule: Q01DX009 (ip), vehicle: saline 98 % of control | dose: 100.0 mg/kg/injection, schedule: Q01DX009 (ip), vehicle: saline + alcohol 98 % of control | dose: 200.0 mg/kg/injection, schedule: Q01DX009 (ip), vehicle: saline + alcohol 110 % of control

CCC1CN2CCc3cc(OC)c(OC)cc3C2CC1CCCl (stereo unspecified)
inactive: dose: 12.5 mg/kg/injection, schedule: Q01DX009 (ip), vehicle: Klucel (hydroxypropylcellulose) (HPC) 94 % of control | dose: 25.0 mg/kg/injection, schedule: Q01DX009 (ip), vehicle: Klucel (hydroxypropylcellulose) (HPC) 103 % of control | [17] 103 % of control and 106 % of control

CC1OC(OC2CCCc3c(O)c4c(c(O)c32)C(=O)c2ccccc2C4=O)CC(N)C1O (stereo unspecified)
inactive: dose: 1.25 mg/kg/injection, schedule: Q04DX002 (ip), vehicle: water 104 % of control and 106 % of control | dose: 2.5 mg/kg/injection, schedule: Q04DX002 (ip), vehicle: water 98 % of control and 111 % of control | dose: 5.0 mg/kg/injection, schedule: Q04DX002 (ip), vehicle: water 98 % of control and 106 % of control | dose: 10.0 mg/kg/injection, schedule: Q04DX002 (ip), vehicle: water 98 % of control and 106 % of control

COC(=O)C1=CO[C@@H](OC2OC(CO)C(O)C(O)C2O)[C@H]2[C@@H](C)[C@@H](O)[C@@H](O)[C@@H]12 (stereo partly specified)
inactive: dose: 5.25 mg/kg/injection, schedule: Q01DX005 (ip), vehicle: Klucel (hydroxypropylcellulose) (HPC) 100 % of control | dose: 10.5 mg/kg/injection, schedule: Q01DX005 (ip), vehicle: Klucel (hydroxypropylcellulose) (HPC) 95 % of control | dose: 21.0 mg/kg/injection, schedule: Q01DX005 (ip), vehicle: Klucel (hydroxypropylcellulose) (HPC) 104 % of control | dose: 42.0 mg/kg/injection, schedule: Q01DX005 (ip), vehicle: Klucel (hydroxypropylcellulose) (HPC) 99 % of control

COc1c2occc2c(NC(=O)CI)c2ccc(=O)oc12
inactive: dose: 25.0 mg/kg/injection, schedule: Q04DX002 (ip), vehicle: saline with Tween-80 102 % of control | dose: 50.0 mg/kg/injection, schedule: Q04DX002 (ip), vehicle: saline with Tween-80 101 % of control | dose: 100.0 mg/kg/injection, schedule: Q04DX002 (ip), vehicle: saline with Tween-80 101 % of control

O=c1c2ccc(Cl)cc2nc2n1OCC2
inactive: [1] 106 % of control | [2] 100 % of control | [3] 101 % of control

CC(=O)OCC12C(=O)CC(C)C3(CC(c4ccoc4)OC3=O)C1(C)CCCC21CO1 (stereo unspecified)
inactive: dose: 3.12 mg/kg/injection, schedule: Q01DX005 (ip), vehicle: Klucel (hydroxypropylcellulose) (HPC) 97 % of control | [7] 97 % of control | [8] 99 % of control | [9] 92 % of control | [10] 94 % of control

O=C(O)C(CS)NC1CC(=O)N(Cc2ccccc2)C1=O (stereo unspecified)
inactive: [10] 110 % of control | [11] 103 % of control | [16] 103 % of control

CC(=O)C(=Cc1ccc(Cl)cc1)C(C)=O
inactive: [18] 97 % of control | [19] 101 % of control

CCOC(=N)Cc1ccccc1
inactive: [4] 103 % of control | [5] 94 % of control | [6] 101 % of control | [12] 100 % of control
